Laboratory results reported in patent publication US9714250B2, “Crystalline forms of temozolomide and the method for preparing same” (Jiangsu Tasly Diyi Pharmaceutical Co., Ltd., priority 2013, dated 2017).

What was measured:
Format in all cases: physicochemical
[1] = Accelerated test (stability); details: 40±2° C., relative humidity 75±5%; for Stability in the accelerated test (conclusion): 6 months; for Appearance and color / Content / Related substances: polyethylene film bag; for Related substances: HPLC
Procedure: (§1) In the following test, related substances were determined as follows: HPLC method was used and chromatographic conditions were as follows: C18 column using octadecylsilane bonded silica gel as the filler, isocratic elution using methanol: 0.5% glacial acetic acid solution (10:90) as the mobile phase, and detection wavelength was at 254 nm.
Crystalline Form A of Temozolomide (Form A0 prepared by the method of EXAMPLE 1) was sealed by a polyethylene film bag, placed under conditions of 40±2° C. and a relative humidity of 75±5% for 6 months, sampled and determined at the end of the 1st,2nd, 3rd and 6th month.
Crystalline Form B of Temozolomide (Form B0 prepared by the method of EXAMPLE 6) was sealed with a polyethylene film bag and placed under conditions of 40±2° C. and a relative humidity of 75±5% for 6 months, sampled and determined at the end of the 1st, 2nd, 3rd and 6th month.
Crystalline Form C of Temozolomide (Form C prepared by the method of EXAMPLE 14) was sealed with a polyethylene film bag and placed under conditions of 40±2° C. and a relative humidity of 75±5% for 6 months, sampled and determined at the end of the 1st, 2nd, 3rd and 6th month.

[2] = Light exposure test (stability); details: for Stability in the light exposure test (conclusion): 4500±500Lx, 10 days; for Appearance and color / Content / Drying loss / Related substances: light intensity 4500±500Lx; for Related substances: HPLC
Procedure: as §1
Crystalline form A of Temozolomide (Form A0 prepared by the method of EXAMPLE 1) was exposed under conditions of light intensity of 4500±500Lx, sampled and determined on the 5th and 10th day.
Crystalline form B of Temozolomide (Form B0 prepared by the method of EXAMPLE 6) was placed, exposed under conditions of light intensity of 4500±500Lx, sampled and determined on the 5th and 10th day.
Crystalline Form C of Temozolomide (Form C prepared by the method of EXAMPLE 14) was placed, exposed under conditions of light intensity of 4500±500Lx, sampled and determined on the 5th and 10th day.

[3] = High humidity test (stability); details: for Stability in the high-humidity test (conclusion) / Appearance and color / Content / Weight gain of moisture absorption / Related substances: 25° C., relative humidity 75±5%; for Stability in the high-humidity test (conclusion): 10 days; for Related substances: HPLC; for Weight gain of moisture absorption (trend): under the high-humidity condition
Procedure: as §1
Crystalline Form A of Temozolomide (Form A0 prepared by the method of EXAMPLE 1) was placed in 25° C. incubator (relative humidity: 75±5%), sampled and determined on the 5th and 10th day.
Crystalline Form B of Temozolomide (Form B0 prepared by the method of EXAMPLE 6) was placed in 25° C. incubator (relative humidity: 75±5%), sampled and determined on the 5th and 10th day.
Crystalline Form C of Temozolomide (Form C prepared by the method of EXAMPLE 14) was placed in 25° C. incubator (relative humidity: 75±5%), sampled and determined on the 5th and 10th day.

[4] = Stability test, overall conclusions; details: light exposure, high-temperature, high-humidity and accelerated tests
Procedure: as §1
It should be noted that each crystalline form of Form A, Form B and Form C has similar stability properties. Hereinafter, Form A0, Form B0 and Form C were chosen only for illustrative purpose.

[5] = High temperature test (stability); details: for Appearance and color / Content / Drying loss / Related substances: 60° C. incubator; for Related substances: HPLC; for Stability in the high-temperature test (conclusion): 60° C., 10 days
Procedure: as §1
Crystalline form A of Temozolomide (Form A0 prepared by the method of EXAMPLE 1) was placed in 60° C. incubator, sampled and determined on the 5th and 10th day.
Crystalline Form B of Temozolomide (Form B0 prepared by the method of EXAMPLE 6) was placed in 60° C. incubator, sampled and determined on the 5th and 10th day.
Crystalline Form C of Temozolomide (Form C prepared by the method of EXAMPLE 14) was placed in 60° C. incubator, sampled and determined on the 5th and 10th day.

Cn1nnc2c(C(N)=O)ncn2c1=O [Form A, Temozolomide]
Stability in the accelerated test (conclusion) [1]: stable
Appearance and color ([1]; 0th month): White powder
Content ([1]; 0th month): 99.94%
Related substances ([1]; 0th month): Not detected
Appearance and color ([1]; 1st month): White powder
Content ([1]; 1st month): 99.81%
Related substances ([1]; 1st month): Not detected
Appearance and color ([1]; 2nd month): White powder
Content ([1]; 2nd month): 99.64%
Related substances ([1]; 2nd month): Not detected
Appearance and color ([1]; 3rd month): White powder
Content ([1]; 3rd month): 99.92%
Related substances ([1]; 3rd month): Not detected
Appearance and color ([1]; 6th month): White powder
Content ([1]; 6th month): 99.62%
Related substances ([1]; 6th month): Not detected
Stability in the light exposure test (conclusion) [2]: stable
Appearance and color ([2]; 0th day): White powder
Content ([2]; 0th day): 99.94%
Drying loss ([2]; 0th day): 0.35%
Related substances ([2]; 0th day): Not detected
Appearance and color ([2]; 5th day): White powder
Content ([2]; 5th day): 99.93%
Drying loss ([2]; 5th day): 0.33%
Related substances ([2]; 5th day): Not detected
Appearance and color ([2]; 10th day): White powder
Content ([2]; 10th day): 99.81%
Drying loss ([2]; 10th day): 0.39%
Related substances ([2]; 10th day): Not detected
Stability in the high-humidity test (conclusion) [3]: stable
Appearance and color ([3]; 0th day): White powder
Content ([3]; 0th day): 99.94%
Weight gain of moisture absorption ([3]; 0th day): 0%
Related substances ([3]; 0th day): Not detected
Appearance and color ([3]; 5th day): White powder
Content ([3]; 5th day): 99.73%
Weight gain of moisture absorption ([3]; 5th day): 0.32%
Related substances ([3]; 5th day): Not detected
Appearance and color ([3]; 10th day): White powder
Content ([3]; 10th day): 99.52%
Weight gain of moisture absorption ([3]; 10th day): 0.51%
Related substances ([3]; 10th day): Not detected
Weight gain of moisture absorption (trend) [3]: slightly increased
Change in the appearance and color, the drying loss, the content and the related substances [4]: no obvious change
Appearance and color ([5]; 0th day): White powder
Content ([5]; 0th day): 99.94%
Drying loss ([5]; 0th day): 0.41%
Related substances ([5]; 0th day): Not detected
Appearance and color ([5]; 5th day): White powder
Content ([5]; 5th day): 99.63%
Drying loss ([5]; 5th day): 0.38%
Related substances ([5]; 5th day): Not detected
Appearance and color ([5]; 10th day): White powder
Content ([5]; 10th day): 99.31%
Drying loss ([5]; 10th day): 0.34%
Related substances ([5]; 10th day): Not detected
Stability in the high-temperature test (conclusion) [5]: stable

Cn1nnc2c(C(N)=O)ncn2c1=O [Form B, Temozolomide]
Stability in the accelerated test (conclusion) [1]: stable
Appearance and color ([1]; 0th month): White powder
Content ([1]; 0th month): 99.97%
Related substances ([1]; 0th month): Not detected
Appearance and color ([1]; 1st month): White powder
Content ([1]; 1st month): 99.71%
Related substances ([1]; 1st month): Not detected
Appearance and color ([1]; 2nd month): White powder
Content ([1]; 2nd month): 99.82%
Related substances ([1]; 2nd month): Not detected
Appearance and color ([1]; 3rd month): White powder
Content ([1]; 3rd month): 99.73%
Related substances ([1]; 3rd month): Not detected
Appearance and color ([1]; 6th month): White powder
Content ([1]; 6th month): 99.85%
Related substances ([1]; 6th month): Not detected
Stability in the light exposure test (conclusion) [2]: stable
Appearance and color ([2]; 0th day): White powder
Content ([2]; 0th day): 99.97%
Drying loss ([2]; 0th day): 0.38%
Related substances ([2]; 0th day): Not detected
Appearance and color ([2]; 5th day): White powder
Content ([2]; 5th day): 99.92%
Drying loss ([2]; 5th day): 0.33%
Related substances ([2]; 5th day): Not detected
Appearance and color ([2]; 10th day): White powder
Content ([2]; 10th day): 99.95%
Drying loss ([2]; 10th day): 0.29%
Related substances ([2]; 10th day): Not detected
Stability in the high-humidity test (conclusion) [3]: stable
Appearance and color ([3]; 0th day): White powder
Content ([3]; 0th day): 99.97%
Weight gain of moisture absorption ([3]; 0th day): 0%
Related substances ([3]; 0th day): Not detected
Appearance and color ([3]; 5th day): White powder
Content ([3]; 5th day): 99.63%
Weight gain of moisture absorption ([3]; 5th day): 0.37%
Related substances ([3]; 5th day): Not detected
Appearance and color ([3]; 10th day): White powder
Content ([3]; 10th day): 99.57%
Weight gain of moisture absorption ([3]; 10th day): 0.52%
Related substances ([3]; 10th day): Not detected
Weight gain of moisture absorption (trend) [3]: slightly increased
Change in the appearance and color, the drying loss, the content and the related substances [4]: no obvious change
Appearance and color ([5]; 0th day): White powder
Content ([5]; 0th day): 99.97%
Drying loss ([5]; 0th day): 0.33%
Related substances ([5]; 0th day): Not detected
Appearance and color ([5]; 5th day): White powder
Content ([5]; 5th day): 99.73%
Drying loss ([5]; 5th day): 0.27%
Related substances ([5]; 5th day): Not detected
Appearance and color ([5]; 10th day): White powder
Content ([5]; 10th day): 99.61%
Drying loss ([5]; 10th day): 0.29%
Related substances ([5]; 10th day): Not detected
Stability in the high-temperature test (conclusion) [5]: stable
